In data set [1] the target is T1, Mouse inducible nitric oxide synthase (miNOS) (Mus musculus, UniProt P29477).
T1 construct: prepared from an extract of LPS-treated RAW 264.7 cells and partially purified by DEAE-Sepharose chromatography; endogenous in cells; host or cells: LPS-treated RAW 264.7 cells (mouse macrophage line)
Briefly: biochemical. Conditions: for IC50: read-out: iNOS; for iNOS, % @ 10 μM: 10 μM compound.
Description: Nitric oxide synthase activity was measured by monitoring the conversion of [3H]-arginine to [3H]-citrulline. Mouse inducible nitric oxide synthase (miNOS) was prepared from an extract of LPS-treated RAW 264.7 cells and partially purified by DEAE-Sepharose chromatography. […] Enzyme and inhibitors were incubated at 37° C. for 15 minutes in a reaction volume of 100 mL with the following components added to start the reaction: 50 mM Tris (pH 7.6), 1 mg/ml bovine serum albumin, 1 mM DTT, 2 mM CaCl2, 10 mM FAD, 10 mM tetrahydrobiopterin, 30 mM L-arginine containing L-[2,3-3H]-arginine at 300 cpm/pmole and 1 mM NADPH. […] The reaction was terminated by addition of cold stop buffer containing 10 mM EGTA, 100 mM HEPES, pH 5.5 and 1 mM citrulline. [3H]-Citrulline was separated by chromatography on Dowex 50W X-8 cation exchange resin and radioactivity determined with a liquid scintillation counter.

The test system of data set [2] is intracellular iNOS in LPS-induced RAW 264.7 cells. Description: Raw cell nitrite assay. The class given is cell-based. Conditions: Mus musculus, read-out: Raw Cell IC50. Here is the method:
RAW 264.7 cells are plated to confluency on a 96-well tissue culture plate grown overnight (17h) in the presence of LPS to induce NOS. […] The media was removed from each well and the cells are washed twice with Krebs-Ringers-Hepes (25 mM, pH 7.4) with 2 mg/ml glucose. The cells are then placed on ice and incubated with […] of buffer containing L-arginine (30 mM) +/− inhibitors for 1 h. The assay is initiated by warming the plate to 37° C. in a water bath for 1 h. […] To terminate the cellular assay, the plate of cells is placed on ice and the nitrite-containing buffer removed and analyzed for nitrite using a previously published fluorescent determination for nitrite. […] All values are the average of triplicate wells and are compared to a background-subtracted induced set of cells (100% value).

The target of data set [3] is T2, Rat brain constitutive nitric oxide synthase (rnNOS) (Rattus norvegicus, UniProt P29476).
T2 construct: prepared from an extract of rat cerebellum and partially purified by DEAE-Sepharose chromatography; from tissue; host or cells: rat cerebellum
Description: Citrulline assay for nitric oxide synthase (cNOS). The format is biochemical. Here is the method:
Nitric oxide synthase activity was measured by monitoring the conversion of [3H]-arginine to [3H]-citrulline. Mouse inducible nitric oxide synthase (miNOS) was prepared from an extract of LPS-treated RAW 264.7 cells and partially purified by DEAE-Sepharose chromatography. Rat brain constitutive nitric oxide synthase (rnNOS) was prepared from an extract of rat cerebellum and partially purified by DEAE-Sepharose chromatography. Enzyme and inhibitors were incubated at 37° C. for 15 minutes in a reaction volume of […] with the following components added to start the reaction: 50 mM Tris (pH 7.6), 1 mg/ml bovine serum albumin, 1 mM DTT, 2 mM CaCl2, 10 mM FAD, 10 mM tetrahydrobiopterin, […] L-arginine containing L-[2,3-3H]-arginine at 300 cpm/pmole and 1 mM NADPH. For constitutive NOS, 50 nM calmodulin was also added. The reaction was terminated by addition of cold stop buffer containing 10 mM EGTA, 100 mM HEPES, pH 5.5 and 1 mM citrulline. [3H]-Citrulline was separated by chromatography on Dowex 50W X-8 cation exchange resin and radioactivity determined with a liquid scintillation counter.

Setting [4] is: conversion of [3H]-arginine to [3H]-citrulline, 37° C., 15 minutes.
The mark [5] stands for this setting: RAW264.7, nitrite production, RAW 264.7 cells, LPS-induced, 1 h at 37° C.
Setting [6] is: conversion of [3H]-arginine to [3H]-citrulline, 50 nM calmodulin added, read-out: cNOS IC50.
[7] abbreviates: printed as % only (inhibition not stated).
Setting [8] is: 100 μM compound, printed as % only (inhibition not stated).

One may read the melting point as the temperature, or range, at which the solid turns liquid.

Structures can show the parent of a compound that is named as a salt. Where two headings read alike, the source gives them in different places. Some results are limits rather than exact numbers.

T1 sequence (P29477 whole entry): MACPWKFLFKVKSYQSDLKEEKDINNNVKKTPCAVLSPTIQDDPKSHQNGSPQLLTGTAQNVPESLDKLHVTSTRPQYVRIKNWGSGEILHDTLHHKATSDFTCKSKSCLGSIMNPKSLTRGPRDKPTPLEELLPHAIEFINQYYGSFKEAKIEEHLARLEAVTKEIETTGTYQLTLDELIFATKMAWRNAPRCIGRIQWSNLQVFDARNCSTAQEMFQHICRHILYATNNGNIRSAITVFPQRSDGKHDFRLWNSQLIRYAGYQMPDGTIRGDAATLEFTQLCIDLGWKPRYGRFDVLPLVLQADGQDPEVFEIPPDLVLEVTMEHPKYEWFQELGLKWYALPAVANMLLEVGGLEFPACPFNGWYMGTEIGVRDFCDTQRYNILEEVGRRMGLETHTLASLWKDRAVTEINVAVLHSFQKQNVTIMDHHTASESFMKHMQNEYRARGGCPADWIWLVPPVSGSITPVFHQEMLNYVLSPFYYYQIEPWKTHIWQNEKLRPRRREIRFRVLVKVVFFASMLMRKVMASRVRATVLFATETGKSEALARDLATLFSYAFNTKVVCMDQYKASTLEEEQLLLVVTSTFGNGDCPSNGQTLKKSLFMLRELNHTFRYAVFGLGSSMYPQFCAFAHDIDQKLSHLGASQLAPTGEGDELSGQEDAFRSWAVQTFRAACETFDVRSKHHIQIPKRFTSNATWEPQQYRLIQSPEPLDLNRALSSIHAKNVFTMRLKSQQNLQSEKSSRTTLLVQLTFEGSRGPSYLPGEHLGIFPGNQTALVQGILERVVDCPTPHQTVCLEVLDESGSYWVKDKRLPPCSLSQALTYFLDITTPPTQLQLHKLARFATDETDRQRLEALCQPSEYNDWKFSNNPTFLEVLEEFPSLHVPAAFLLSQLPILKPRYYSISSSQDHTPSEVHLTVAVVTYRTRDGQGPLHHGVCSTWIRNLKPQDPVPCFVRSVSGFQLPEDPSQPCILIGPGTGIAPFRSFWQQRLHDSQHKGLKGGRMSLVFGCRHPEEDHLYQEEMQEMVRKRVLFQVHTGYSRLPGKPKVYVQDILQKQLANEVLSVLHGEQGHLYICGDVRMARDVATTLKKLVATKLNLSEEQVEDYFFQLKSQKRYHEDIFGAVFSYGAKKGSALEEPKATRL
T2 sequence (P29476 whole entry): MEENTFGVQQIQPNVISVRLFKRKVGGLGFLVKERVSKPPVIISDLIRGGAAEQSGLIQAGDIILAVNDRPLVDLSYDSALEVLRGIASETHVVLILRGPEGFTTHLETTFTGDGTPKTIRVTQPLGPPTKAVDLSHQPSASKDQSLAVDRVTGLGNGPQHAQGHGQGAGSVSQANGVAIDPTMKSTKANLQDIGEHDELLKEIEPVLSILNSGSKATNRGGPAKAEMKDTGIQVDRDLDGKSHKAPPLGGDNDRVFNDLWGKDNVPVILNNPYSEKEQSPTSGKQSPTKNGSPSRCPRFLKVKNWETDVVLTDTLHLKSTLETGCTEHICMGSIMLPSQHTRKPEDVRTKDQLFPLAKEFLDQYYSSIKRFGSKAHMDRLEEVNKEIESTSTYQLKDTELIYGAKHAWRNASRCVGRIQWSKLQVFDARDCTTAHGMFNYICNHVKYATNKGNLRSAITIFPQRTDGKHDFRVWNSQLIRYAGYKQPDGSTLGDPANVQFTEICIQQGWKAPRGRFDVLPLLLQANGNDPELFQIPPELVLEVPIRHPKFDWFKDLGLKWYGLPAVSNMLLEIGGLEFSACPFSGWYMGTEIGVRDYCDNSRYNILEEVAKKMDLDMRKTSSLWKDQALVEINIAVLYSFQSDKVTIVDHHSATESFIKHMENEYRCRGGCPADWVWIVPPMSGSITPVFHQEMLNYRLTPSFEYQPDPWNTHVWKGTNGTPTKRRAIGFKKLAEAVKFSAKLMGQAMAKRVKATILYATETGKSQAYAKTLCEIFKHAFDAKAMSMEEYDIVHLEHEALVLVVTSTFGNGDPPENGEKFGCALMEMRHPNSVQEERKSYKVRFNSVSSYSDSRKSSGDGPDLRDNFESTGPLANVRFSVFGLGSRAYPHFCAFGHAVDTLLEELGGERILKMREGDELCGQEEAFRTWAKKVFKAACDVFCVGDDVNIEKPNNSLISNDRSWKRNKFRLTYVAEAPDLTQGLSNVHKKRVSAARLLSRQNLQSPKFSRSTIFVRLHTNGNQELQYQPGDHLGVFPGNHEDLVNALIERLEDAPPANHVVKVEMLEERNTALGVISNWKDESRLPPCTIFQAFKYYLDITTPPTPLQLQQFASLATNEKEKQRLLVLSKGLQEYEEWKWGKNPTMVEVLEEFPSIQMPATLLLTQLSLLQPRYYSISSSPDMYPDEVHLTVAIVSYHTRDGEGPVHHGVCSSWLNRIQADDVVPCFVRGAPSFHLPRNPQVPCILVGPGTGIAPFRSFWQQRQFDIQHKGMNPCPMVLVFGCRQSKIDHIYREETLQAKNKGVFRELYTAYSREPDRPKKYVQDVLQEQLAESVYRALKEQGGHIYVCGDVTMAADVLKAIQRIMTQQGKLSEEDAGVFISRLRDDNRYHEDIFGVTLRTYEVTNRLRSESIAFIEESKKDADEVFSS

Consider `CC1CCCNC1=N` (stereo not drawn) (as salt: acetate) [Example 9, 2-imino-3-methylpiperidine acetate], for which the melting point fell in the range of 88 to 100 °C.

As to `CCOC(=O)CCCC[C@@H]1SC[C@@H]2NC(=N)NC21` (stereo partly drawn) [Example 22, 2-Iminobiotin ethyl ester], the results for the IC50 in data set [1] (setting [4]), in data set [2] (setting [5]) and in data set [3] were 30 µM, > 1000 µM and 1300 µM, respectively.

The molecule `CC1CC(=N)NC(C)C1` (stereo not drawn) (as salt: acetate) [Example 10, 2-imino-4,6-dimethylpiperidine acetate] yielded a melting point of 163 to 166 °C.

`N=C1CCCCN1` [Example 13, 2-Iminopiperidine hydrochloride]: the IC50 in data set [1] (setting [4]) was 0.6 µM; in data set [2] (RAW264.7, 1 h), 14 µM; in data set [3], 2 µM.

Regarding `CC1CCC(=N)NC1` (stereo not drawn) (as salt: acetate) [Example 7, 2-Imino-5-methylpiperidine acetate], the melting point was in the range of 175 to 178 °C.

On to `CCC1CCCCNC1=N` (stereo not drawn) [Example 60, 3-ethyl-hexahydro-1H-azepin-2-imine, monohydrochloride], for which the IC50 came out at 3.5 µM in data set [2] (RAW264.7, 1 h) and 32 µM in data set [3].

In the case of `CC1CN=C(N)C1` (stereo not drawn) [Example 182, 4-methylpyrrolidin-2-imine, monohydrochloride], the IC50 in data set [1] (setting [4]) stood at 1.4 µM; in data set [3], 14 µM.

For `NC1=NCCCN1` [Example 14, 2-Iminotetrahydropyrimidine hemihydrosulfate], the IC50 is > 1000 µM in data set [2] (RAW264.7, 1 h) and 23 µM in data set [3] (setting [6]).

`CN1CCCCC1=N` (as salt: hydroiodid) had a melting point of 157 to 158 °C.

In the case of `N=C1NCCS1` [Example 16, 2-Iminothiazolidine hydrochloride], the IC50 in data set [2] (setting [5]) worked out at 4.3 µM.

Regarding `CC1CCC(N)=NC1` (stereo not drawn) [Example 7, 2-Imino-5-methylpiperidine acetate], the IC50 came to 2 µM in data set [1] (setting [4]) and 13.3 µM in data set [3].

For the molecule `CCC1NC(=N)CC1C` (stereo not drawn) [Example 217, 5-ethyl-4-methylpyrrolidin-2-imine, monohydrochloride], the IC50 in data set [1] (setting [4]) was determined as 0.17 µM; in data set [2] (RAW264.7, 1 h), 0.25 µM; in data set [3] it was 1.6 µM.

As to `Cl.N=C1CC(C(=O)O)CCN1` (stereo not drawn), the melting point fell in the range of 230 to 234 °C.

Consider `CC1CCNC(=N)CC1` (stereo not drawn) [Example 70, hexahydro-5-methyl-1H-azepin-2-imine, monohydrochloride], for which the IC50 in data set [1] (setting [4]) amounted to 5.9 µM; in data set [2] (RAW264.7, 1 h), 24 µM; in data set [3], 32 µM.

In turn, `CN1CCCCCC1=N` (as salt: hydroiodid) returned a melting point of 137 to 139 °C.

For `N=C1N[C@H]2[C@H](CS[C@H]2CCCCC(=O)O)N1` [Example 21, 2-Iminobiotin], the IC50 in data set [1] (setting [4]) is 40 µM; in data set [2] (RAW264.7, 1 h), > 1000 µM; in data set [3] (setting [6]), 500 µM.

As for `NC1=NCCCS1` [Example 17, 2-Imino-3-thiapiperidine hydrochloride], the IC50 in data set [1] (setting [4]) stood at 0.8 µM; in data set [2] (RAW264.7, 1 h) it was 28 µM; in data set [3], 2.7 µM.

As to `NC1=NCCCO1` [Example 18, hydrochloride], the IC50 was 0.8 µM in data set [1] (setting [4]); 6 µM in data set [2] (RAW264.7, 1 h); 6 µM in data set [3].

As to `CC1CCC(O)C(=N)N1` (stereo not drawn) (as salt: acetate) [Example 277, 3-hydroxy-2-imino-6-methylpiperidine acetate], the melting point was 158 to 160 °C.

In turn, `CC1CCCC(=N)N1.Cl` (stereo not drawn) [Example 8, 2-Imino-6-methylpiperidine hydrochloride] gave a melting point of 160 to 162 °C. Besides, the IC50 in data set [1] (setting [4]) was determined as 0.16 µM. For the same molecule, in data set [3], the IC50 came to 0.99 µM.

Turning to `Cl.N=C1CCC2=C(CCCC2)N1` [Example 3, 3,4,5,6,7,8-hexahydro-2[1H]-quinolineimine hydroiodide], the melting point lay in the range of 150 to 155 °C. For the same molecule, the “iNOS, % @ 10 μM” value in data set [1] (setting [7]) was found to be 43% * 10 μM.

In the case of `CC1CCN=C(N)C1` (stereo not drawn) [Example 6, 2-Imino-4-methylpiperidine acetate], in data set [1], the IC50 amounted to 0.055 µM.

As to `NC1=NCCCCCC1` [Example 1, 2-Imino-heptamethyleneimine hydrochloride], the IC50 came to 2.1 µM in data set [1] (setting [4]); 60 µM in data set [2] (RAW264.7, 1 h); 13.3 µM in data set [3].

As for `CC1CCC(N)=N1` (stereo not drawn) [Example 5, 2-Imino-5-methyltetramethyleneimine hydriodide], the IC50 came to 3.2 µM in data set [1] (setting [4]), 18 µM in data set [2] (setting [5]) and 9.4 µM in data set [3].

Regarding `N=C1NCCO1` [Example 19, 2-Iminooxazolidine], the “iNOS, % @ 10 μM” value in data set [1] (setting [7]) was determined as 42% @ 10 μM.

Regarding `CC1CCCN=C1N` (stereo not drawn) [Example 9, 2-imino-3-methylpiperidine acetate], the IC50 worked out at 1.5 µM in data set [1] (setting [4]) and 2.01 µM in data set [3].

Consider `CC1CC(N)=NC(C)C1` (stereo not drawn) [Example 10, 2-imino-4,6-dimethylpiperidine acetate], for which the IC50 in data set [1] (setting [4]) stood at 0.043 µM; in data set [3] (setting [6]) it was 0.127 µM.

In the case of `CN=C1CCCCCN1` (as salt: hydroiodid), the melting point fell in the range of 169 to 171 °C.

Consider `Cl.N=C1NC[C@H]2CCCC[C@H]12` (relative stereo) [Example 173, (trans)-octahydro-2H-isoindol-1-imine, monohydrochloride], for which, in data set [1] (setting [7]), the “iNOS, % @ 10 μM” value is listed as 42% @ 10 μM.

For `N=C1CCCCCCCN1` [Example 2, 2-Imino-octamethyleneimine hydrochloride], the IC50 in data set [1] (setting [4]) was 2.2 µM; in data set [2] (RAW264.7, 1 h), > 1000 µM; in data set [3] it was 9.9 µM.

On to `N=C1NCCCC1O` (stereo not drawn) [Example 11, 2-Imino-3-hydroxypiperidine acetate], for which the IC50 in data set [1] (setting [4]) turned out to be 0.92 µM; in data set [3] it was 2.77 µM.

As for `N=C1NCC(CCl)O1` (stereo not drawn) [Example 20, 5-Chloromethyl-2-iminooxazolidine], the IC50 in data set [1] (setting [4]) amounted to 1 µM; in data set [2] (setting [5]) it was 160 µM; in data set [3], 5 µM.

`N=C1NCCCC1O` (stereo not drawn) (as salt: acetate) [Example 11, 2-Imino-3-hydroxypiperidine acetate] showed a melting point of 128 to 130 °C.

As for `N=C1NCCN1` [Example 15, 2-Iminoimidazolidine], the “iNOS, % @ 10 μM” value in data set [1] (setting [7]) worked out at 8% @ 10 μM.

Turning to `Cl.N=C1CCc2ccccc2N1` [Example 164, 1,2,3,4-tetrahydroquinolin-2-imine, monohydrochloride], the “iNOS, % @ 100 μM” value in data set [1] (setting [8]) stood at 60% @ 100 μM. Moreover, the “cNOS, % @ 100 μM” value in data set [3] (setting [8]) worked out at 74% @ 100 μM.

With `CN1CCCNC1=N` [Example 23, 1-Methyl-2-iminotetrahydropyrimidine], in data set [1] (setting [7]), the “iNOS, % @ 10 μM” value was found to be 41% @ 10 μM.

`NC1=NC(c2ccccc2)CCCC1` (stereo not drawn) [Example 192, hexahydro-7-phenyl-1H-azepin-2-imine, monohydrochloride]: the IC50 in data set [1] stood at 12 µM; in data set [2] (RAW264.7, 1 h) it was 31 µM; in data set [3], 179 µM.

Turning to `C[C@@H]1CCCC(N)=NC1` [Example 90, hexahydro-6R-methyl-1H-azepin-2-imine, monohydrochloride], the IC50 turned out to be 7 µM in data set [1] (setting [4]) and 46 µM in data set [3].

`C=CCC1CCCCNC1=N` (stereo not drawn) [Example 107, hexahydro-3-(2-propenyl)-1H-azepin-2-imine, monohydrochloride]: the IC50 in data set [1] (setting [4]) is 3.8 µM; in data set [2] (RAW264.7, 1 h) it was 15 µM; in data set [3] it was 342 µM.

On to `NC1=NCCC1` [Example 12, 2-iminopyrrolidine hydrochloride], for which the IC50 worked out at 5.1 µM in data set [1]; 1.8 µM in data set [2] (RAW264.7, 1 h); 32 µM in data set [3].

Regarding `CC1(C)CCN=C(N)C1` [Example 170, 4,4-dimethylpiperidin-2-imine, monohydrochloride], the IC50 in data set [3] was found to be 53 µM.

On to `CC1CCNC1=N` (stereo not drawn) [Example 4, 2-Imino-3-methyltetramethyleneimine hydriodide], for which the IC50 was found to be 4.6 µM in data set [1] (setting [4]); 14 µM in data set [2] (RAW264.7, 1 h); 2.4 µM in data set [3].
